In patent publication US20140142155A1, “METHOD OF TREATING THROMBOCYTOPENIA” (GlaxoSmithKline LLC, priority 2008, published 2014):
Entries after “also recorded” stand apart in the source; their conditions may differ. Like-named read-outs stand apart in the source and are kept apart here.

How the values were obtained:
healthy adult subjects = experiment: QT/QTc double-blind placebo- and positive-controlled crossover trial; type: in vivo, human; conditions: 400 mg, single oral dose
Experimental: The effects of Promacta® at doses up to 150 mg daily for 5 days (supratherapeutic doses) on the QT/QTc interval was evaluated in a double-blind, randomized, placebo- and positive-controlled (moxifloxacin 400 mg, single oral dose) crossover trial in healthy adult subjects.

Solubility = type: physicochemical
[1] = Clinical pharmacokinetics: absorption, distribution, metabolism, elimination (incl. radiolabel study); type: in vivo, human; conditions: for half-life: plasma, oral
Experimental: Based on urinary excretion and biotransformation products eliminated in feces, the oral absorption of drug-related material following administration of a single 75 mg solution dose was estimated to be at least 52%.
Metabolites due to glucuronidation and oxidation were also detected.

[2] = Food effect open-label randomized crossover study; type: in vivo, human; conditions: standard high-fat breakfast
Excerpt: The calcium content of this meal may have also contributed to this decrease in exposure.

[3] = Pharmacokinetics by race and gender; type: in vivo, human
OATP1B1 [4] = target: T1, OATP1B1 (Homo sapiens, UniProt Q9Y6L6); experiment: In vitro OATP1B1 inhibition; type: in vitro ADME
UGT1A1 [5] = target: T2, UGT1A1 (Homo sapiens, UniProt P22309); experiment: In vitro UGT inhibition; type: in vitro ADME
Excerpt: (§1) Monitor patients closely for signs or symptoms of excessive exposure to these drugs when concomitantly administered with Promacta®.

UGT1A3 [6] = target: T3, UGT1A3 (Homo sapiens, UniProt P35503); experiment: In vitro UGT inhibition; type: in vitro ADME
Excerpt: as §1

UGT1A4 = UGT1A4 (Homo sapiens, UniProt P22310); experiment: In vitro UGT inhibition; type: in vitro ADME
Excerpt: as §1

UGT1A6 = UGT1A6 (Homo sapiens, UniProt P19224); experiment: In vitro UGT inhibition; type: in vitro ADME
Excerpt: as §1

UGT1A9 = UGT1A9 (Homo sapiens, UniProt O60656); experiment: In vitro UGT inhibition; type: in vitro ADME
Excerpt: as §1

UGT2B15 = UGT2B15 (Homo sapiens, UniProt P54855); experiment: In vitro UGT inhibition; type: in vitro ADME
Excerpt: as §1

UGT2B7 = UGT2B7 (Homo sapiens, UniProt P16662); experiment: In vitro UGT inhibition; type: in vitro ADME
Excerpt: as §1

CYP2C8 [7] = target: T4, CYP2C8 (Homo sapiens, UniProt P10632); experiment: In vitro CYP inhibition (paclitaxel probe); type: in vitro ADME; conditions: paclitaxel probe substrate
Excerpt: (§2) Probe substrates for CYP2C8 were not evaluated in this study.

CYP2C9 = CYP2C9 (Homo sapiens, UniProt P11712); experiment: In vitro CYP inhibition (diclofenac probe); type: in vitro ADME; conditions: diclofenac probe substrate
Excerpt: as §2

CYP1A2 = CYP1A2 (Homo sapiens, UniProt P05177); experiment: In vitro oxidative metabolism; type: in vitro ADME
CYP2C8 [8] = target: T4, CYP2C8; experiment: In vitro oxidative metabolism; type: in vitro ADME
UGT1A1 [9] = target: T2, UGT1A1; experiment: In vitro glucuronidation; type: in vitro ADME
UGT1A3 [10] = target: T3, UGT1A3; experiment: In vitro glucuronidation; type: in vitro ADME
human plasma proteins = experiment: In vitro plasma protein binding; type: in vitro ADME
p-glycoprotein (Pgp) = p-glycoprotein (Pgp) (Homo sapiens, UniProt P08183); experiment: Transporter substrate assessment; type: in vitro ADME
OATP1B1 [11] = target: T1, OATP1B1; experiment: Transporter substrate assessment; type: in vitro ADME
female rats = experiment: Early embryonic development study; type: in vivo, rat; conditions: highest dose, 7 times human clinical exposure (AUC); maternally toxic
pregnant rats (F0) = experiment: Pre- and post-natal developmental toxicity study; type: in vivo, rat
rats [12] = experiment: Platelet production in animals; type: in vivo, rat
mice [13] = experiment: Platelet production in animals; type: in vivo, mouse
dogs [14] = experiment: Platelet production in animals; type: in vivo, dog
rats [15] = experiment: In vivo micronucleus assay; conditions: rat micronucleus, 11 times human clinical exposure (Cmax)
rats [16] = experiment: In vivo unscheduled DNA synthesis assay; conditions: rat unscheduled DNA synthesis, 11 times human clinical exposure (Cmax)
mouse lymphoma = experiment: In vitro mouse lymphoma assay; type: cell-based
rats [17] = experiment: Fertility studies in rats; type: in vivo, rat
[18] = In vitro phototoxicity and photoclastogenicity; type: cell-based
mice [19] = experiment: In vivo cutaneous phototoxicity; design: species or system mouse; conditions: up to 11 times human clinical exposure (AUC)
rabbits = experiment: Toxicology in rabbits; type: in vivo, rabbit; conditions: 1.4 times human clinical exposure (AUC)
pregnant rats = conditions: rat, in vivo
pregnant rabbits = conditions: oral 30, 80, or 150 mg/kg/day (0.1, 0.3, 0.6 times human clinical exposure, AUC)
rats [20] = conditions: rat, in vivo
mice [21] = conditions: mouse, in vivo
mice [22] = conditions: mouse, in vivo; remark: listed apart in the source
rats [23] = conditions: rat, in vivo; remark: listed apart in the source
dogs [24] = conditions: dog, in vivo
bacterial = experiment: Bacterial mutation assay
mice [25] = experiment: 2-year oral carcinogenicity study in mice; conditions: 2-year study, lowest dose (25 mg/kg/day)

T4 sequence (P10632 whole entry): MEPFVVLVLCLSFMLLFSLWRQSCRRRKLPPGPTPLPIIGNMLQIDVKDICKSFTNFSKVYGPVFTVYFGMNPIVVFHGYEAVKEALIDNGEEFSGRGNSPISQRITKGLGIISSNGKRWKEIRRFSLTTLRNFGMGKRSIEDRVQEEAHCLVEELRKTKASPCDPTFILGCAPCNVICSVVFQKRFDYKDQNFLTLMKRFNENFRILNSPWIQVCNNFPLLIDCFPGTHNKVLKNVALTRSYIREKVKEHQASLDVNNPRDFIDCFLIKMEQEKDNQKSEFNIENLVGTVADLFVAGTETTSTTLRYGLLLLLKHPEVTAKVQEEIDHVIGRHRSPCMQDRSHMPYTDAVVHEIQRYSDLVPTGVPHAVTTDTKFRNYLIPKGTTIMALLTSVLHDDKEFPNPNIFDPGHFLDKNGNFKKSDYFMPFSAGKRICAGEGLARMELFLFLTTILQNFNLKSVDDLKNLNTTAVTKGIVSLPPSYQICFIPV
T1 sequence (Q9Y6L6 whole entry): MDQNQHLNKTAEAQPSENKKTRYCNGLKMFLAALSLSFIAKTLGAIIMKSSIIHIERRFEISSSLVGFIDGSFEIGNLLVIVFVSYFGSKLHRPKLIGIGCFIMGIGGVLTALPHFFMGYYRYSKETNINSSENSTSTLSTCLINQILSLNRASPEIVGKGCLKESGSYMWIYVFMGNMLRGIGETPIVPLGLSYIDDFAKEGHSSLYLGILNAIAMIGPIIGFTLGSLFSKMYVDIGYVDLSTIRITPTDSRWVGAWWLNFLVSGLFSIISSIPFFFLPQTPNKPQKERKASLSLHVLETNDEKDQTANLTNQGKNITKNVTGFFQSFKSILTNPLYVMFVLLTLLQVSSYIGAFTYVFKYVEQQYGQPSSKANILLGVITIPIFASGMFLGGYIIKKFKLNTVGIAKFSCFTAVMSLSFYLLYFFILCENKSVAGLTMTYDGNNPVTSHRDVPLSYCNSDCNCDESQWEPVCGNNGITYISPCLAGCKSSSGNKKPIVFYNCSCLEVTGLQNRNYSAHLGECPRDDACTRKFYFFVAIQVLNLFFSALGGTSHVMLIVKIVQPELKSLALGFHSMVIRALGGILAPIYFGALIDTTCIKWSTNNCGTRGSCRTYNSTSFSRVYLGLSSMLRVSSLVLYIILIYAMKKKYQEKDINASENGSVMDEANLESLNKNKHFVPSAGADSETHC
Chain of CYP1A2 (P05177 whole entry): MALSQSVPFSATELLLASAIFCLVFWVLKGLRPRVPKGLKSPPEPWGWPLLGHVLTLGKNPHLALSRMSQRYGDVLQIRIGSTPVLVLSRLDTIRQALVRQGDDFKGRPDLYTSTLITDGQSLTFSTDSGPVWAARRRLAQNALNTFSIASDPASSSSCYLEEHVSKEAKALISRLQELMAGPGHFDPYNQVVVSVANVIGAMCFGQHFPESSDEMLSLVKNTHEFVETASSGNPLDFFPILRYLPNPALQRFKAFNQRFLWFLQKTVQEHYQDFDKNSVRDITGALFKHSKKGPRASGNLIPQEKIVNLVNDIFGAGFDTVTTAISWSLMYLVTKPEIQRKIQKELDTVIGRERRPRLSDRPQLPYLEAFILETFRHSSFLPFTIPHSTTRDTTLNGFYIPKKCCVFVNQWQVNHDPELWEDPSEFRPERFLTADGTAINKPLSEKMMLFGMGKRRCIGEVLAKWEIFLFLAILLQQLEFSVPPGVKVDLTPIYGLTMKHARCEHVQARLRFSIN
T2 sequence (P22309 26-533): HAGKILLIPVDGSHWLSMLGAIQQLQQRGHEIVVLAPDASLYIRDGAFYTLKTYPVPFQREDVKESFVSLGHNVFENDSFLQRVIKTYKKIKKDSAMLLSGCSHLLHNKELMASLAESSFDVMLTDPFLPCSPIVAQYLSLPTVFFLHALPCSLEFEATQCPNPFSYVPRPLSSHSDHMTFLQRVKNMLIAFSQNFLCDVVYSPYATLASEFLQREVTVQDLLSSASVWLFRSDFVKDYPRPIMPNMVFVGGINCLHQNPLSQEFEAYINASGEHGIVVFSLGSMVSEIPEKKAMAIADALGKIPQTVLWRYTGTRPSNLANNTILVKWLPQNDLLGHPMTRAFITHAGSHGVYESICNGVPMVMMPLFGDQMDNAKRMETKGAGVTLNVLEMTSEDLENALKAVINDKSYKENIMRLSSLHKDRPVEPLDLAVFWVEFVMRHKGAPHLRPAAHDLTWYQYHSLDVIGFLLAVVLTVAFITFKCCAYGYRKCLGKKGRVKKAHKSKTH
T3 sequence (P35503 29-534): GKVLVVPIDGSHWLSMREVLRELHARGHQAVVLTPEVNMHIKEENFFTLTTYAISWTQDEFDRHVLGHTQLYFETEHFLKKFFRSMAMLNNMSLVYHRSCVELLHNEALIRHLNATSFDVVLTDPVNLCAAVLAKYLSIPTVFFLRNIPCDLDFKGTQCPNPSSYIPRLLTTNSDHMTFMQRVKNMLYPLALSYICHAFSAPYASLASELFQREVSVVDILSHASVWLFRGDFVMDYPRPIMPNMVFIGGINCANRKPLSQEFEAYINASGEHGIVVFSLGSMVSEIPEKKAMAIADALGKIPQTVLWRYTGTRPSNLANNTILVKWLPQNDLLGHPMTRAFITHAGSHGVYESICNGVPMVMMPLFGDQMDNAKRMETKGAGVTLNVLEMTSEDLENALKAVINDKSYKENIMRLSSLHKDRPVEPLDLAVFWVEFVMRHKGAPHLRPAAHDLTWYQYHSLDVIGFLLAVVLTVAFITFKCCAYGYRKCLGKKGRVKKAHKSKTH
Chain of UGT2B15 (P54855 24-530): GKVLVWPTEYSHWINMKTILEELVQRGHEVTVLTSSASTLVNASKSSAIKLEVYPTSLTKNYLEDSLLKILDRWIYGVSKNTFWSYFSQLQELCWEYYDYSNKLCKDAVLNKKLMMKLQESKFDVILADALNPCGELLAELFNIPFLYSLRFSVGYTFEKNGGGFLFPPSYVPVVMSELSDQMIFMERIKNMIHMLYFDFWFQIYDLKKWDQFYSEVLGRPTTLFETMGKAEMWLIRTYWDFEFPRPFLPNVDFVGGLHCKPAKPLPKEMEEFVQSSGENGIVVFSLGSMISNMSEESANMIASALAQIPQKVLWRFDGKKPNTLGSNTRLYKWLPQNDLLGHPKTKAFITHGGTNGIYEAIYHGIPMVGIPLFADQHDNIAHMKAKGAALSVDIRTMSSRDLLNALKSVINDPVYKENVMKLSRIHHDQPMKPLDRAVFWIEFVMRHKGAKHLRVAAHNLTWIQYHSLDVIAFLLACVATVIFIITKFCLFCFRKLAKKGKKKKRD
Chain of UGT1A9 (O60656 26-530): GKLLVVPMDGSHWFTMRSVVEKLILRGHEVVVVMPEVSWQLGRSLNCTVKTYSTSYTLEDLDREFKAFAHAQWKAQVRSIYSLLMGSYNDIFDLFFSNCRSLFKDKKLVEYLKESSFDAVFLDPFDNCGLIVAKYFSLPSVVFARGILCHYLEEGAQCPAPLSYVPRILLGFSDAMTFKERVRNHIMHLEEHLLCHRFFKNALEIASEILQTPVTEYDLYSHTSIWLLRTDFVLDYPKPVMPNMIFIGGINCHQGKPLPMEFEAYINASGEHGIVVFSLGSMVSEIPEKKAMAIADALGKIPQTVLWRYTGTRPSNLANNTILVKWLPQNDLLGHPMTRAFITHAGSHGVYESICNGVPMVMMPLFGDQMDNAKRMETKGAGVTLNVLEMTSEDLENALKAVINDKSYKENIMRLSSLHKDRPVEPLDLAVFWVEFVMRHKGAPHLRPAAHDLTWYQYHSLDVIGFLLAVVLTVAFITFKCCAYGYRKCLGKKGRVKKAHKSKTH
Chain of p-glycoprotein (Pgp) (P08183 whole entry): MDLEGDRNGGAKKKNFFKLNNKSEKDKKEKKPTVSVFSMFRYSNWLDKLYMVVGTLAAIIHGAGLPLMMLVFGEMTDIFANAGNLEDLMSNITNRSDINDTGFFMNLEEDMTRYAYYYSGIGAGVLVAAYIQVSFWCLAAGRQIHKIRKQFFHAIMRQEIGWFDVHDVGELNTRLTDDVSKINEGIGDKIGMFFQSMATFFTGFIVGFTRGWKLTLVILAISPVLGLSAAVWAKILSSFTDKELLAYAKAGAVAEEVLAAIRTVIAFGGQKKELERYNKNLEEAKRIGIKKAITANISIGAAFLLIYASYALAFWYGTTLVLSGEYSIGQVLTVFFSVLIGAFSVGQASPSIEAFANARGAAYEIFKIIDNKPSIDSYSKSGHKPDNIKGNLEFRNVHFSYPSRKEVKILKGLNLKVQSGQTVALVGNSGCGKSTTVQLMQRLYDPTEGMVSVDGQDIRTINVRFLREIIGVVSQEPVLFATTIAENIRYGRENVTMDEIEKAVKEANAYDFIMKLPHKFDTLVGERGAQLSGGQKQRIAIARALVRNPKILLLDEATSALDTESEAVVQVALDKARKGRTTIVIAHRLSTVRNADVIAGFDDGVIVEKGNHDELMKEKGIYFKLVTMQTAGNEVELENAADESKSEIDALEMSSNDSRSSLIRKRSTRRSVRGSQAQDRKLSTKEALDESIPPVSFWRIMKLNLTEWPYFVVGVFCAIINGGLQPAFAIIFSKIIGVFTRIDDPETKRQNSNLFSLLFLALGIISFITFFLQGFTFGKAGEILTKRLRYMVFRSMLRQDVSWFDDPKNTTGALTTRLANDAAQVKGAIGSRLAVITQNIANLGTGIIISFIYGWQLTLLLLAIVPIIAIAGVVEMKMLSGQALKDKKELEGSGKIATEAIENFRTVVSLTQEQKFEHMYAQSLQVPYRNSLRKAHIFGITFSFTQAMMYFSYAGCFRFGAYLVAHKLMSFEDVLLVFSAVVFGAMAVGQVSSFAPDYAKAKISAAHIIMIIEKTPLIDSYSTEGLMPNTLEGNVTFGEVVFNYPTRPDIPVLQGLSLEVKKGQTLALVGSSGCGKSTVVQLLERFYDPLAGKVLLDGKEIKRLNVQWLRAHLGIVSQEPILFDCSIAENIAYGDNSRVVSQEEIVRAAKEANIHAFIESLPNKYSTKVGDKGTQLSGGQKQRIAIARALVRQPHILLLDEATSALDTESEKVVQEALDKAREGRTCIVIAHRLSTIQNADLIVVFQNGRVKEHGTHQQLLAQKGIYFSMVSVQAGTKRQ

## COc1c(N2C[C@@H]3CCCN[C@@H]3C2)c(F)cc2c(=O)c(C(=O)O)cn(C3CC3)c12 [moxifloxacin]
Healthy adult subjects
  QTc effect of positive control: significant QTc prolongation

## CC1=NN(c2ccc(C)c(C)c2)C(=O)/C1=N\Nc1cccc(-c2cccc(C(=O)O)c2)c1O.NCCO.NCCO [Eltrombopag olamine, 3′-{(2Z)-2-[1-(3,4-dimethylphenyl)-3-methyl-5-oxo-1,5-dihydro-4H-pyrazol-4-ylidene]hydrazino}-2′-hydroxy-3-biphenylcarboxylic acid-2-aminoethanol (1:2)]
Solubility
  solubility in water: sparingly soluble
Solubility; pH range of 1 to 7.4
  solubility in aqueous buffer: practically insoluble

## CC1=NN(c2ccc(C)c(C)c2)C(=O)/C1=N\Nc1cccc(-c2cccc(C(=O)O)c2)c1O [eltrombopag, 3′-[(2Z)-[1-(3,4-dimethylphenyl)-1,5-dihydro-3-methyl-5-oxo-4H-pyrazol-4-ylidene]hydrazino]-2′-hydroxy-[1,1′-biphenyl]-3-carboxylic acid]
[1]; % of dose
  dose found in the urine: 31%
  excretion via feces: 59%
  unchanged eltrombopag in feces: approximately 20%
[1]; cleavage, oxidation, conjugation
  extent of metabolism: extensively metabolized
[1]; human radiolabel study
  share of plasma radiocarbon AUC0-∞: approximately 64%
[1]; human, in vivo
  renal excretion: not significantly renally excreted
  unchanged eltrombopag in urine: not detectable
[1]; human, in vivo, po
  time of peak concentration after oral administration: 2 to 6 h
[1]; human, ITP patients
  half-life: 1560 to 2100 min
[1]; human, healthy subjects
  half-life: 1260 to 1920 min
[1]; radiolabel study
  concentration in blood cells as % of plasma concentrations: 50-79%
[1]; single 75 mg solution dose, from urinary excretion and fecal biotransformation products
  oral absorption of drug-related material: at least 52%
[2]
  decrease of Cmax with food: 65%
  decrease of plasma AUC0-∞ with food: approximately 59%
[3]; East Asian subjects with ITP
  plasma exposure higher than in non-Asian subjects: approximately 70%
[3]; healthy African-American subjects
  systemic exposure higher: approximately 40%
[3]; population PK model, adjusted for body weight
  apparent clearance greater in males than females: 27%
OATP1B1 [4]
  inhibition of OATP1B1: inhibitor
UGT1A1 [5]
  inhibition of UGT1A1: inhibitor
UGT1A3 [6]
  inhibition of UGT1A3: inhibitor
UGT1A4
  inhibition of UGT1A4: inhibitor
UGT1A6
  inhibition of UGT1A6: inhibitor
UGT1A9
  inhibition of UGT1A9: inhibitor
UGT2B15
  inhibition of UGT2B15: inhibitor
UGT2B7
  inhibition of UGT2B7: inhibitor
CYP2C8 [7]
  inhibition of CYP2C8: inhibitor
CYP2C9
  inhibition of CYP2C9: inhibitor
CYP1A2
  role of CYP1A2 in oxidative metabolism: responsible; also recorded: involved
CYP2C8 [8]
  role of CYP2C8 in oxidative metabolism: responsible; also recorded: involved
UGT1A1 [9]
  role of UGT1A1 in glucuronidation: responsible
UGT1A3 [10]
  role of UGT1A3 in glucuronidation: responsible
Human plasma proteins
  plasma protein binding: highly bound to plasma proteins
Human plasma proteins; in vitro
  bound to human plasma proteins: > 99%
p-glycoprotein (Pgp)
  substrate for p-glycoprotein (Pgp): not a substrate
OATP1B1 [11]
  substrate for OATP1B1: not a substrate
Female rats
  early embryonic development findings: Increased pre- and post-implantation loss and reduced fetal weight
Pregnant rats (F0); 0.8 and 2 times human clinical exposure (AUC), drug given to F0 dams
  plasma concentrations in pups versus dose: increased with dose
Pregnant rats (F0); after administration to F0 dams
  presence in plasma of offspring (F1): detected
Pregnant rats (F0); doses up to 2 times human clinical exposure (AUC)
  effects on maternal reproductive function or development of offspring (F1): no adverse effects
Rats [12]
  platelet production: does not stimulate platelet production
Mice [13]
  platelet production: does not stimulate platelet production
Dogs [14]
  platelet production: does not stimulate platelet production
Rats [15]
  mutagenicity/clastogenicity: not mutagenic or clastogenic
Rats [16]
  mutagenicity/clastogenicity: not mutagenic or clastogenic
Mouse lymphoma; in vitro
  mouse lymphoma assay result: marginally positive
Mouse lymphoma; in vitro mouse lymphoma assay
  increase in mutation frequency: < 3 fold
Rats [17]; doses up to 20 mg/kg/day (2 times human clinical exposure, AUC)
  female fertility: did not affect female fertility
Rats [17]; doses up to 40 mg/kg/day, highest dose tested (5 times human clinical exposure, AUC)
  male fertility: did not affect male fertility
[18]
  photoclastogenicity in vitro: photoclastogenic
  phototoxicity in vitro: phototoxic
[18]; cytotoxic concentrations, UV 30 MED
  drug concentrations at which photoclastogenic effects were observed: ≥ 15 µg/mL
[18]; up to 58.4 mcg/mL, UV 15 MED
  photoclastogenicity in vitro at lower UV exposure: No evidence of in vitro photoclastogenicity
Mice [19]
  in vivo cutaneous phototoxicity: no evidence
rabbits
  liver finding: hepatocellular hypertrophy
Pregnant rats
  embryofetal findings: Decreased fetal weights and a slight increase in the presence of cervical ribs
  major structural malformations: no evidence of major structural malformations
Pregnant rabbits
  fetotoxicity, embryolethality, or teratogenicity: no evidence of fetotoxicity, embryolethality, or teratogenicity
Rats [20]
  photo-ocular toxicity: no evidence
Mice [21]
  photo-ocular toxicity: no evidence
Mice [22]
  liver finding: hepatocellular hypertrophy
  renal tubular effects after 13 weeks: No similar effects were observed
  renal tubular toxicity: Renal tubular toxicity was observed
Mice [22]; 6 weeks
  duration of dosing after which cataracts were observed: 6 weeks
Mice [22]; 13 weeks
  duration of dosing after which cataracts were observed: 13 weeks
Rats [23]
  liver finding: hepatocellular hypertrophy
  liver finding (vacuolation): hepatocellular vacuolation
Rats [23]; 28 weeks
  duration of dosing after which cataracts were observed: 28 weeks
Rats [23]; 39 weeks
  duration of dosing after which cataracts were observed: 39 weeks
Dogs [24]
  cataracts: Cataracts were not observed
  liver finding: hepatocellular hypertrophy
  renal tubular toxicity: Renal tubular toxicity was not observed
bacterial
  mutagenicity/clastogenicity: not mutagenic or clastogenic
Mice [25]
  exposure at the lowest dose relative to human clinical exposure based on AUC: 1.4 times
